Consider one compound from patent US20250170252A1, “QUINONE PROTECTED FORMS AND CONJUGATES” (CAMBRIDGE ENTERPRISE LIMITED, priority 2022, published 2025).

Structures are written as SMILES.

The test system of assay [1] is range of cancer cell lines, including leukaemia, breast, colon, and cervical cancer. Put plainly: Toxicity to a range of cancer cell lines (panel). The conditions noted are these: panel of cells. The format is cell-based. On the procedure: Assays assessing cytotoxicity of β-lapachone and derivatives were performed by CellTiter-Blue assay (Promega) according to the manufacturer's instructions. Briefly, adherent cancer-cell lines were plated at 20,000 cells/well in 96 well plates or suspension cell lines were plated at a concentration of 2×10^5 cells/mL in 24 well plates. Compound stocks in media were made by dilution of DMSO stocks containing the compound of interest to obtain a final in-plate DMSO concentration of only 0.1%. Incubation was performed for 48 h. Following incubation, media was replaced with media containing CellTiter-Blue (Promega) in 1:10 dilution and the plates were incubated for 1.5-4 h. The fluorescence of the plates was recorded (excitation 555 nm, emission 585 nm, […] Reader, Molecular Devices). Cell viability was calculated by division of the fluorescence intensity of treated wells by that of the calculated average fluorescence intensity of replicate negative control wells containing cells with 0.1% DMSO only. Values and reported error bars represent the mean and standard error of the mean of three triplicate repeats for each concentration tested.

The target of assay [2] is T1, 5-LO (Homo sapiens, UniProt P09917).
T1 sequence (P09917 1-674): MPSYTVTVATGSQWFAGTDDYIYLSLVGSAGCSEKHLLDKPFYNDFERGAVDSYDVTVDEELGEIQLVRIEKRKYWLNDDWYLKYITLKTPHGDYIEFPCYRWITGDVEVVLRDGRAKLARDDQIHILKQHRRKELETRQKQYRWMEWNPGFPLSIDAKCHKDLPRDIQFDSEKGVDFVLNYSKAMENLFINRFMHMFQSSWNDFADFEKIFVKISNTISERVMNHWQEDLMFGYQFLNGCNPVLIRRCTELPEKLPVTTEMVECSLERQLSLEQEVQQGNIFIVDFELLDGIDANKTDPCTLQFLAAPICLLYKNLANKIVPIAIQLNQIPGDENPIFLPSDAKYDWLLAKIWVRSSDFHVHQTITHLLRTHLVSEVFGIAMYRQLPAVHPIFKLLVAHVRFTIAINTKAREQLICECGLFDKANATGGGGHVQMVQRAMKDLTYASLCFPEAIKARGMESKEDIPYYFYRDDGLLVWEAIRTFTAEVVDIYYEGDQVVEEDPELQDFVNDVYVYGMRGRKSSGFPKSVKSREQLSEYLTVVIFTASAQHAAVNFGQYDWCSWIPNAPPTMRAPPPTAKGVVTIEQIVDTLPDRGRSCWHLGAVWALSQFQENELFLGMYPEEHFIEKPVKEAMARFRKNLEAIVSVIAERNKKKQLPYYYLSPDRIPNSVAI
Particulars: previous work, Chem. Sci. 2018; cited from earlier work.

Assay [3] relates to range of cell lines. Put plainly: Toxicity of Gluc-PHB-BL against a range of cell lines with and without added β-glucuronidase. The format is cell-based. Particulars: control tests. As for the experimental part:
(§1) Assays assessing cytotoxicity of β-lapachone and derivatives were performed by CellTiter-Blue assay (Promega) according to the manufacturer's instructions. Briefly, adherent cancer-cell lines were plated at 20,000 cells/well in 96 well plates or suspension cell lines were plated at a concentration of 2×10^5 cells/mL in 24 well plates. Compound stocks in media were made by dilution of DMSO stocks containing the compound of interest to obtain a final in-plate DMSO concentration of only 0.1%. Incubation was performed for 48 h. Following incubation, media was replaced with media containing CellTiter-Blue (Promega) in 1:10 dilution and the plates were incubated for 1.5-4 h. The fluorescence of the plates was recorded (excitation 555 nm, emission 585 nm, MiniMax i3x Reader, Molecular Devices).
(§2) Cell viability was calculated by division of the fluorescence intensity of treated wells by that of the calculated average fluorescence intensity of replicate negative control wells containing cells with 0.1% DMSO only. Values and reported error bars represent the mean and standard error of the mean of three triplicate repeats for each concentration tested. IC50 values were calculated using GraphPad Prism 8 software.
(§3) The potential of compound 37a, glucuronide-PHB-BL, as a prodrug was investigated. As discussed above, at physiological pH the compound has a relatively slow-release rate. Toxicity of Gluc-PHB-BL 37a was tested against a range of cell lines with and without added β-glucuronidase. Addition of the enzyme mimics conditions of the solid tumour environment.

Assay [4] relates to MOLM-13. Kind of assay: Toxicity with/without β-glucuronidase, MOLM-13. The conditions noted are these: Homo sapiens, MOLM-13; read-out: IC50 β-lapachone, 1. The format is cell-based. As for the experimental part: as §1, §2, §3
The nature of assay [5]: In vitro redox-cycling ability, phenol red/horseradish peroxidase assay. The format is biochemical. The conditions noted are these: HRP/phenol-red reporter assay, absorbance at 610 nm; up to 25 μM. As for the experimental part: In vitro redox cycling capability of compounds was assessed by phenol red/horseradish peroxidase (HRP) assay by adaption of a previously described protocol (Assay Drug Dev. Technol., 2008, 6, 505-518). Briefly, stocks were prepared as follows: (1) DTT to a concentration of 2.4 μM in PBS pH 7.4 buffer; (2) compound stocks in PBS pH 7.4 buffer to 3× the desired concentration by 1000× dilution of DMSO stocks; (3) a stock of phenol-red-HRP detection reagent containing 300 μg/mL phenol red and 180 μg/mL HRP enzyme in PBS pH 7.4 buffer; (4) a stock of 1 M NaOH in water; (5) a stock of 100 μM H2O2 in PBS prepared by addition of a 30% solution of H2O2 in water into 1000 μL of PBS. Into each well of a 96 well clear flat-bottomed plate was then added 40 μL of compound stock in PBS followed by 40 μL of DTT stock, followed immediately by 40 μL of phenol-red-HRP reagent. A positive control with 100 μM H2O2 added in place of compound was included. The plate was incubated in the dark at room temperature for 15 min. Following this 20 μL of 1 M NaOH was added to each well to terminate the reaction. Absorbance was immediately measured at 610 nm (MiniMax i3x Imager, Molecular Devices). Absorbance of treated wells was normalised to control wells treated with PBS only (zero redox cycling). All readings were performed in triplicate and error bars display standard error of the mean.
(A reporter such as luciferase makes a cellular process visible.)

Turning to `CC1(C)CCC2=C(O1)c1ccccc1C(=O)C2=O` [Compound 1, β-lapachone, reference compound], the IC50 (commonly the concentration at which inhibition is half-maximal) was 1100 to 4200 nM in assay [1] and 12.1 µM in assay [4]. Also, the “inhibition of 5-LO” value in assay [2] was “strongly inhibits”. In addition, the “effect of β-glucuronidase addition on toxicity” value in assay [3] is given as “not significantly affected”. Also, the “redox activity (in vitro redox-cycling capability)” value in assay [5] is listed as “saturates the assay above 10 μM concentration”.
